# Data: US8158441B2, “Method for detecting aggregate-forming circulating protein forms using an agent for aggregating said forms and an agent for capturing formed aggregates” (Biomerieux S.A., priority 2005, dated 2012)
# What was measured:
# [1] = molecular target: T1, recombinant alpha-synuclein (SYN) protein (Homo sapiens, UniProt P37840); test: Precipitation of recombinant alpha-synuclein spiked into human plasma by agent I, protein gel and Western blotting; conditions: 50 to 500 mg/ml agent I, 60 minutes at 37° C., Western blotting
# T1 construct: purchased rPeptide
# Experimental: After migration, two options are used: • The protein gel is stained with Coomassie Blue by adding gelcode blue stain reagent (Pierce) overnight at ambient temperature with shaking. […] 9.2 Detection in the Presence of the Agent I
# The pellets are recovered and are separated from the supernatants. All the fractions are conserved. The pellets are taken up with 250 μl of SDS buffer. After denaturation, all the fractions are analyzed by the Western blotting technique.
# [2] = molecular target: T2, phosphorylated Tau protein (Homo sapiens, UniProt P10636); test: Precipitation of phosphorylated Tau protein from brain extracts spiked into plasma by agent I, PhosphoTau ELISA of pellet and supernatant; conditions: TET 100 mg/ml, 60 minutes at 37° C.
# T2 construct: The assays are carried out with 25 ng of brain extracts; from tissue; host or cells: brain extracts from Alzheimer (AD+) and non-Alzheimer (AD-) patients, diluted in a pool of normal plasmas
# Experimental: The PhosphoTau Elisa assay is based on the use of Dynex microplates to which are bound 3 μg/ml of goat anti-mouse Fc antibodies (Pierce) in a 25 mM KHPO4 buffer (pH 7.2) containing 140 mM NaCl, 1 mM EDTA and 2 mM NaN3, for three hours at 24° C. The wells are then passivated with a TBS (25 mM Tris-HCl, pH 7.5, 140 mM NaCl)-casein (1%) buffer for 1 h at 24° C., and then incubated for 2 h at 24° C. with 3 μg/ml of Tau1 (Chemicon) and CP27 (AppliedNeuroSolutions) antibodies diluted in TBS casein buffer.
# Standards and brain extracts are diluted in a pool of normal plasmas for these assays and deposited at a rate of 80 μL per well in duplicate. […] 20 μl of this mixture are added to each well and incubated for 66 hours at 24° C. […] The biotinylated antibody is detected with 0.4 μg/ml of a streptavidin-peroxydase conjugate (Pierce) diluted in TBS-casein buffer and incubated for 45 minutes at 24° C. A Lumiglo reagent (Kirkegaard and Perry laboratories, US) is added to each well and the chemiluminescence is read in a luminometer (Berthold, Centro LB 960). […]
# The samples are then centrifuged for 10 minutes at 13 000 rpm. […] The samples are then ready to be deposited on plates.
# The samples are then centrifuged for 10 minutes at 13 000 rpm. […] The samples are then ready to be deposited onto plates.
# [3] = molecular target: T3, beta-amyloid peptide 1-42 (Homo sapiens, UniProt P05067); test: Circular dichroism of Aβ42 peptide with para-sulfonato-calix[4]arene; type: binding; conditions: in the presence of para-sulfonato-calix[4]arene, peptide/calixarene 1/1 to 1/5
# T3 construct: synthetic beta-amyloid peptide 42 amino acids in length (beta-A peptide 1-42)
# Experimental: The analysis is carried out by circular dichroism.
# (§1) The beta-amyloid peptide to be analyzed as defined above, also called Aβ42, is extemporaneously dissolved at a stock concentration of 2.2×10^−4M in a solution of trifluoroethanol (TFE) at 20% in water in order to structure the β-amyloid peptides. The para-sulfonato-calix[n]arenes, prepared as described in Da Silva, E. et al., 2003, Tetrahedron, 59(37): 7357-7364, are dissolved at 100 μM in 50 mM phosphate buffer. The samples are prepared so as to be able to obtain a final concentration of 10 μM of beta-amyloid peptide in a phosphate buffer, i.e. for a final volume of 500 μL. The peptide concentration/calixarene concentration ratios can vary from 1/0 to 1/5.
# A β-amyloid control without para-sulfonato-calix[n]arene is carried out: 22.5 μL of Aβ42 stock solution at 2.2×10^−4M (5 nmol) in 20% TFE, 477.5 μL of 50 mM phosphate buffer.
# The samples are analyzed by circular dichroism between 180 and 260 nm.
# The control is a sample of Aβ42 peptide without calixarene (1/0). The solutions are prepared for a final volume of 500 μL. The Aβ42 peptide has a molar mass of 4514 g/mol, the para-sulfonato-calix[4]arene has a molar mass of 744 g/mol.
# [4] = molecular target: T3, beta-amyloid peptide 1-42; test: Circular dichroism of Aβ42 peptide with chondroitin-6-sulfate; type: binding
# Experimental: as §1, with “2.2×10^-4M” for “2.2×10^−4M”, “para-sulfonato-[…],” for “para-sulfonato-calix[n]arenes,”, “1/5. The samples are analyzed by circular dichroism between 180 and 260 nm. The protocol described in Example 5 above was repeated, with the exception that chondroitin-6-sulfate (Sigma) was used as agent II.” for “1/5.”
# [5] = test system: recombinant Tau protein; test: Capture/precipitation of recombinant Tau protein by agent II C6S, Western blotting of pellet and supernatant; conditions: C6S 0.5 mM to 60 mM, 30 minutes at 37° C., centrifugation
# Experimental: It is identical to that described in point 2.1 above.
# The assays are carried out as indicated in point 2.2 above, apart from the fact that C6S prepared as indicated patent application WO2004/059322 is used, with a concentration range of from 0.5 mM to 60 mM.
# [6] = chondroitin-6-sulfate at a concentration equal to that of Aβ42
# T3 sequence (P05067 672-713): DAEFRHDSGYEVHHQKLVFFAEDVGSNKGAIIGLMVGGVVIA
# T2 sequence (P10636 1-441 isoform P10636-8): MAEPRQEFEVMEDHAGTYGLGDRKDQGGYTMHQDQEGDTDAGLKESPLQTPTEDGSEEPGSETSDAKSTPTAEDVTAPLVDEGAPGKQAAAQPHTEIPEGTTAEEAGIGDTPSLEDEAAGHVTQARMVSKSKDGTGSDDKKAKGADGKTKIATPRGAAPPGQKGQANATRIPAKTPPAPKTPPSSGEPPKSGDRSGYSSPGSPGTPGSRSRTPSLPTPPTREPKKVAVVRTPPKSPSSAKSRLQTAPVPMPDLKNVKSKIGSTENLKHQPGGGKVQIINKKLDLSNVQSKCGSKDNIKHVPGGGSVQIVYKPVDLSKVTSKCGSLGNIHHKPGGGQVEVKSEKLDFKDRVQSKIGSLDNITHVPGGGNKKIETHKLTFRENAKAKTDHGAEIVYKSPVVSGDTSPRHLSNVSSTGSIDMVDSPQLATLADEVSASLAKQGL
molecule,measurement,setting,value
"NCCNCCNCCN [TET, triethylenetetramine]",completeness of precipitation of the Syn protein (protein found in the supernatant fraction),[1],not complete
same,fraction in which the Syn protein is found after treatment with agent I,[1],found in the pellet
same,fraction in which the phosphorylated Tau protein is found after treatment with agent I,[2],found in the pellet
O=S(=O)(O)c1cc2c(O)c(c1)Cc1cc(S(=O)(=O)O)cc(c1O)Cc1cc(S(=O)(=O)O)cc(c1O)Cc1cc(S(=O)(=O)O)cc(c1O)C2 [para-sulfonato-calix[4]arene],aperiodic structure (200 nm) of Aβ42 as share of visible structures,[3],38%
same,α-helix structure (210 nm) of Aβ42 as share of visible structures,[3],more than 37%
same,β-sheets (220 nm) of Aβ42 as share of visible structures,[3],more than 26%
[H]/N=C(/N)N[C@H]1[C@H](O)[C@@H](O)[C@H](O[C@@H]2O[C@@H](C)[C@](O)(C=O)[C@H]2O[C@@H]2O[C@@H](CO)[C@H](O)[C@@H](O)[C@@H]2NC)[C@@H](N/C(N)=N\[H])[C@@H]1O [streptomycin],completeness of precipitation of the Syn protein (protein found in the supernatant fraction),[1],not complete
same,fraction in which the Syn protein is found after treatment with agent I,[1],found in the pellet
chondroitin-6-sulfate,aperiodic structure (at 200 nm) of Aβ42,[4]; [6],greater than 26%
same,α-helix (at 210 nm) of Aβ42,[4]; [6],more than 37%
same,β-sheet of Aβ42 at 220 nm,[4]; [6],appears
same,secondary conformation adopted by Aβ42,[4]; chondroitin-6-sulfate five times greater than the Aβ42 peptide,essentially aperiodic structure
"p-sulfonato-3,7-(2-aminoethyloxy)calix-[6]-arene [C6S]",fraction in which the Tau protein and its digested forms are found after treatment with C6S,[5],found in the pellet
